Read-outs that look alike come from different tables or passages of the source.
System: BJAB cells
Assay: BJAB cell proliferation (Cell Titer Glo)
Format: cell-based
How it was run: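 BJAB cells exposed to serially diluted compounds (0.1% DMSO final) for about 72 h at 37 °C. Proliferation read by Cell Titer Glo luminescence as percent of untreated controls; EC50 from non-linear regression of dose-response data.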

Cc1nn(-c2nc(-c3ccc(Cl)c(Cl)c3)c(CC(C)C)s2)c(C(=O)O)c1-c1cnn(C)c1 [Compound 142, 1-(4-(3,4-dichlorophenyl)-5-isobutylthiazol-2-yl)-1′,3-dimethyl-1H,1′H-[4,4′-bipyrazole]-5-carboxylic Acid]
EC50 (Homo sapiens, read-out: EC50): 1 to 5 µM

Cc1cc(C)cc(-c2c(C)nn(-c3nc(-c4ccc(Cl)c(Cl)c4)c(SC(C)C)s3)c2C(=O)O)c1 [Compound 143, 1-(4-(3,4-dichlorophenyl)-5-(isopropylthio)thiazol-2-yl)-4-(3,5-dimethylphenyl)-3-methyl-1H-pyrazole-5-carboxylic Acid]
EC50 (Homo sapiens, read-out: EC50): 1 to 5 µM

Cc1nn(-c2nc(-c3ccc(Cl)c(Cl)c3)c(SC(C)C)s2)c(C(=O)O)c1-c1cc(Cl)cc(Cl)c1 [Compound 144, 4-(3,5-dichlorophenyl)-1-(4-(3,4-dichlorophenyl)-5-(isopropylthio)thiazol-2-yl)-3-methyl-1H-pyrazole-5-carboxylic Acid]
EC50 (Homo sapiens, read-out: EC50): < 1 µM

COc1cc(Cl)cc(-c2c(C)nn(-c3nc(-c4ccc(Cl)c(Cl)c4)c(SC(C)C)s3)c2C(=O)O)c1 [Compound 145, 4-(3-chloro-5-methoxyphenyl)-1-(4-(3,4-dichlorophenyl)-5-(isopropylthio)thiazol-2-yl)-3-methyl-1H-pyrazole-5-carboxylic Acid]
EC50 (Homo sapiens, read-out: EC50): 1 to 5 µM

COc1cc(-c2c(C)nn(-c3nc(-c4ccc(Cl)c(Cl)c4)c(SC(C)C)s3)c2C(=O)O)cc(C(F)(F)F)c1 [Compound 146, 1-(4-(3,4-dichlorophenyl)-5-(isopropylthio)thiazol-2-yl)-4-(3-methoxy-5-(trifluoromethyl)phenyl)-3-methyl-1H-pyrazole-5-carboxylic Acid]
EC50 (Homo sapiens, read-out: EC50): 1 to 5 µM

Cc1cc(Cl)cc(-c2c(C)nn(-c3nc(-c4ccc(Cl)c(Cl)c4)c(SC(C)C)s3)c2C(=O)O)c1 [Compound 147, 4-(3-chloro-5-methylphenyl)-1-(4-(3,4-dichlorophenyl)-5-(isopropylthio)thiazol-2-yl)-3-methyl-1H-pyrazole-5-carboxylic Acid]
EC50 (Homo sapiens, read-out: EC50): < 1 µM

Cc1nn(-c2nc(-c3ccc(Cl)c(Cl)c3)c(SC(C)C)s2)c(C(=O)NS(C)(=O)=O)c1-c1cc(C(F)(F)F)cc(C(F)(F)F)c1 [Compound 148, 4-(3,5-bis(trifluoromethyl)phenyl)-1-(4-(3,4-dichlorophenyl)-5-(isopropylthio)thiazol-2-yl)-3-methyl-N-(methylsulfonyl)-1H-pyrazole-5-carboxamide]
EC50 (Homo sapiens, read-out: EC50): > 40 µM

Cc1nn(-c2nc(-c3ccc(Cl)c(Cl)c3)c(SC(C)C)s2)c(C(=O)O)c1-c1cnc2ccccn12 [Compound 149, 1-(4-(3,4-dichlorophenyl)-5-(isopropylthio)thiazol-2-yl)-4-(imidazo[1,2-a]pyridin-3-yl)-3-methyl-1H-pyrazole-5-carboxylic acid]
EC50 (Homo sapiens, read-out: EC50): 5 to 10 µM

Cc1nn(-c2nc(-c3ccc(Cl)c(Cl)c3)c(SC(C)C)s2)c(C(=O)O)c1-c1cccc(F)c1 [Compound 151, 1-(4-(3,4-dichlorophenyl)-5-(isopropylthio)thiazol-2-yl)-4-(3-fluorophenyl)-3-methyl-1H-pyrazole-5-carboxylic Acid]
EC50: A, B

Cc1nn(-c2nc(-c3ccc(Cl)c(Cl)c3)c(SC(C)C)s2)c(C(=O)O)c1-c1cc(O)cc(F)c1 [Compound 152, 1-(4-(3,4-dichlorophenyl)-5-(isopropylthio)thiazol-2-yl)-4-(3-fluoro-5-hydroxyphenyl)-3-methyl-1H-pyrazole-5-carboxylic Acid]
EC50 (Homo sapiens, read-out: EC50): 5 to 10 µM

Cc1cc(N)cc(-c2c(C)nn(-c3nc(-c4ccc(Cl)c(Cl)c4)c(SC(C)C)s3)c2C(=O)O)c1 [Compound 153, 4-(3-amino-5-methylphenyl)-1-(4-(3,4-dichlorophenyl)-5-(isopropylthio)thiazol-2-yl)-3-methyl-1H-pyrazole-5-carboxylic acid]
EC50 (Homo sapiens, read-out: EC50): > 25 µM

Cc1nn(-c2nc(-c3ccc(Cl)c(Cl)c3)c(SC(C)C)s2)c(C(=O)O)c1-c1cc(O)cc(Cl)c1 [Compound 154, 4-(3-chloro-5-hydroxyphenyl)-1-(4-(3,4-dichlorophenyl)-5-(isopropylthio)thiazol-2-yl)-3-methyl-1H-pyrazole-5-carboxylic Acid]
EC50 (Homo sapiens, read-out: EC50): 10 to 25 µM

Cc1nn(-c2nc(-c3ccc(Cl)c(Cl)c3)c(SC(C)C)s2)c(C(=O)O)c1-c1cccc2ccn(C)c12 [Compound 155, 1-(4-(3,4-dichlorophenyl)-5-(isopropylthio)thiazol-2-yl)-3-methyl-4-(1-methyl-1H-indol-7-yl)-1H-pyrazole-5-carboxylic Acid]
EC50 (Homo sapiens, read-out: EC50): 5 to 10 µM

CC(C)Sc1sc(-n2cccn2)nc1-c1ccc(Cl)c(Cl)c1 [Compound 156, 4-(3,4-dichlorophenyl)-5-(isopropylthio)-2-(1H-pyrazol-1-yl)thiazole]
EC50 (Homo sapiens, read-out: EC50): > 25 µM

Cc1cc(-c2c(C)nn(-c3nc(-c4ccccc4Cl)c(SC(C)C)s3)c2C(=O)O)cc(C)n1 [Compound 157, 1-(4-(2-chlorophenyl)-5-(isopropylthio)thiazol-2-yl)-4-(2,6-dimethylpyridin-4-yl)-3-methyl-1H-pyrazole-5-carboxylic Acid]
EC50 (Homo sapiens, read-out: EC50): 1 to 5 µM

Cc1cc(-c2c(C)nn(-c3nc(-c4cccc(Cl)c4)c(SC(C)C)s3)c2C(=O)O)cc(C)n1 [Compound 158, 1-(4-(3-chlorophenyl)-5-(isopropylthio)thiazol-2-yl)-4-(2,6-dimethylpyridin-4-yl)-3-methyl-1H-pyrazole-5-carboxylic Acid]
EC50 (Homo sapiens, read-out: EC50): 5 to 10 µM

Cc1cc(-c2c(C)nn(-c3nc(-c4ccc(Cl)cc4)c(SC(C)C)s3)c2C(=O)O)cc(C)n1 [Compound 159, 1-(4-(4-chlorophenyl)-5-(isopropylthio)thiazol-2-yl)-4-(2,6-dimethylpyridin-4-yl)-3-methyl-1H-pyrazole-5-carboxylic Acid]
EC50 (Homo sapiens, read-out: EC50): < 1 µM

Cc1cc(-c2c(C)nn(-c3nc(-c4ccc(Cl)cc4Cl)c(SC(C)C)s3)c2C(=O)O)cc(C)n1 [Compound 160, 1-(4-(2,4-dichlorophenyl)-5-(isopropylthio)thiazol-2-yl)-4-(2,6-dimethylpyridin-4-yl)-3-methyl-1H-pyrazole-5-carboxylic Acid]
EC50 (Homo sapiens, read-out: EC50): < 1 µM

Cc1cc(-c2c(C)nn(-c3nc(-c4cc(Cl)ccc4Cl)c(SC(C)C)s3)c2C(=O)O)cc(C)n1 [Compound 161, 1-(4-(2,5-dichlorophenyl)-5-(isopropylthio)thiazol-2-yl)-4-(2,6-dimethylpyridin-4-yl)-3-methyl-1H-pyrazole-5-carboxylic acid]
EC50 (Homo sapiens, read-out: EC50): 5 to 10 µM

Cc1cc(-c2c(C)nn(-c3nc(C#Cc4ccccc4)c(SC(C)C)s3)c2C(=O)O)cc(C)n1 [Compound 162, 4-(2,6-dimethylpyridin-4-yl)-1-(5-(isopropylthio)-4-(phenylethynyl)thiazol-2-yl)-3-methyl-1H-pyrazole-5-carboxylic acid]
EC50 (Homo sapiens, read-out: EC50): 5 to 10 µM

Cc1cc(-c2c(C)nn(-c3nc(Cc4ccccc4)c(SC(C)C)s3)c2C(=O)O)cc(C)n1 [Compound 163, 1-(4-benzyl-5-(isopropylthio)thiazol-2-yl)-4-(2,6-dimethylpyridin-4-yl)-3-methyl-1H-pyrazole-5-carboxylic acid]
EC50 (Homo sapiens, read-out: EC50): 10 to 25 µM

COc1cc(F)cc(-c2c(C)nn(-c3nc(-c4ccc(Cl)c(Cl)c4)c(SC(C)C)s3)c2C(=O)O)c1 [Compound 164, 1-(4-(3,4-dichlorophenyl)-5-(isopropylthio)thiazol-2-yl)-4-(3-fluoro-5-methoxyphenyl)-3-methyl-1H-pyrazole-5-carboxylic Acid]
EC50 (Homo sapiens, read-out: EC50): 1 to 5 µM
